The text below walks through data of article PMC10956426, “Lipid-Binding Regions within PKC-Related Serine/Threonine Protein Kinase N1 (PKN1) Required for Its Regulation” (Biochemistry, 2024).

This test concerns the target T1, PKN1-(C2), PKN1-(C2)-(342–605) (Rattus norvegicus, UniProt Q63433).
T1 construct: predominantly trimer
Put plainly: intrinsic tryptophan fluorescence quenching, Scatchard. It is filed as binding. Conditions: 3 lipids per trimer, 20 mM phosphate pH 7.4, 25 mM NaCl, 25 °C, sonicated vesicles. An excerpt:
intrinsic tryptophan fluorescence quenching, Scatchard on PKN1-(C2), PKN1-(C2)-(342–605)

The mark [1] stands for this setting: type I (high-affinity) site of a biphasic curve.

T1 sequence (Q63433 342-605): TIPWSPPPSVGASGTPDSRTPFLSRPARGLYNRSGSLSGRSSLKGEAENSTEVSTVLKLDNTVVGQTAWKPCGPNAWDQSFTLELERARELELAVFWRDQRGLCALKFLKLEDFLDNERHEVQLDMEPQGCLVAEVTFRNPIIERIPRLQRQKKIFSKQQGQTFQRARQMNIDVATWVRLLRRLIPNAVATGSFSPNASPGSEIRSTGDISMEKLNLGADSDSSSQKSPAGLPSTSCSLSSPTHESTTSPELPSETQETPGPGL

In turn, cardiolipin came in with a Kd under setting [1] of 1 ± 0.6 µM.
Turning to phosphatidic acid, under setting [1], binding was put at a Kd of 0.3 µM.
In turn, phosphatidylcholine displayed a Kd (one class of sites) of 0.1 µM.
The same measure, in the same setting: the value for phosphatidylserine was 0.2 µM.
